Like-named read-outs stand apart in the source and are kept apart here.
Experiment: Pharmacokinetic study of I-11 in female BALB/c mice (Example 4)
Type: in vivo, Balb/c mouse
Details: mouse, plasma; for concentration at 0.25 hr / concentration at 0.5 hr / concentration at 1 hr / concentration at 2 hr / concentration at 4 hr / concentration at 8 hr / concentration at 24 hr / concentration at 0.083 hr: female, BALB/c, po
Procedure: Pharmacokinetic Study in Female BALB/c Mice: Balb/c mouse, 17-19 g, 8-10 weeks, female, N=27, purchased from JH Laboratory Animal Co. LTD
Fasted overnight and fed at 4 hr post dosing.
Animals dosed with sampling at 0.083, 0.25, 0.5, 1, 2, 4, 8, 24 hr post dose. 8 time points. Semi-serial bleeding for plasma only. The animals were restrained manually at the designated time points. Approx. 110 μL of blood/time point was taken from the animals via facial vein into tubes with K2EDTA. Blood sample was centrifuged at 4° C. (2000 g, 5 min) to obtain plasma within 15 m after sample collection. Put on wet ice, then plasma samples were stored at approximately −70° C. until analysis.
For oral gavage, compound was dosed as a suspension in […] carboxymethyl cellulose (CMC), 0.2% Tween 80 in water. Compound was orally dosed at 50 mg/Kg, at 100 mg/Kg.
For IV dosing, compound was dissolved into a solution of […], […] HS 15 and 90% Saline. Compound was IV dosed at 5 mg/Kg.
Plasma samples were analyzed for I-11 using LC-MS using a calibration curve of known concentrations.
FIG. 1 describes the mean plasma concentration-time profiles of I-11 after single IV dose of 5 mg/kg, PO dose of 50 mg/kg and 100 mg/kg in female Balb/c mice (N=3/time point). • Note: • 1. […] The IV dosing solutions were prepared in 5% DMSO+5% Solutol HS15+90% Saline. The PO dosing solutions were prepared in 1% CMC-Na+0.2% Tween 80 in water. • 3. BQL=Below quantifiable limit of 3.00 ng/mL for I-11 in female Balb/c mouse plasma samples. • 4. PK parameters were estimated by non-compartmental model using WinNonlin 8.2. If the adjusted rsq (linear regression coefficient of the concentration value on the terminal phase) is less than 0.9, T1/2 might not be accurately estimated. • 5. F value was determined by the following equation: • If AUClast/AUCINF>80%:
F=(AUCINF-EX×DOSEIV)/(AUCINF-IV×DOSEEX)[…] • If AUClast/AUCINF<80% or AUCINF not available:
F=([…])/(AUClast-IV×DOSEEX)[…] • 6. NA: Not available.

[1] = 50 mg/kg, PO 50 mg/kg, read-out: Plasma concentration Mean
[2] = 50 mg/kg, PO 50 mg/kg, read-out: Plasma concentration Individual
[3] = 100 mg/kg, PO 100 mg/kg, read-out: Plasma concentration Individual
[4] = 100 mg/kg, PO 100 mg/kg, read-out: Plasma concentration Mean

Structure (SMILES): CC(C)Cc1sc(Nc2ncc(-c3cccs3)cc2C(=O)O)nc1C(C)(C)C [Compound I-11]
- concentration at 0.25 hr [1]: 1760 ng/mL
- concentration at 0.5 hr [2]: 3830 ng/mL
- concentration at 0.5 hr [1]: 5850 ng/mL
- concentration at 1 hr [2]: 8760 ng/mL
- concentration at 1 hr [1]: 7120 ng/mL
- concentration at 2 hr [2]: 7260 ng/mL
- concentration at 2 hr [1]: 6310 ng/mL
- concentration at 4 hr [2]: 1170 ng/mL
- concentration at 4 hr [1]: 1730 ng/mL
- concentration at 8 hr [2]: 367 ng/mL
- concentration at 8 hr [1]: 314 ng/mL
- concentration at 24 hr (50 mg/kg, PO 50 mg/kg): 83.3 ng/mL
- concentration at 0.083 hr [3]: 188 ng/mL
- concentration at 0.083 hr [4]: 246 ng/mL
- concentration at 0.25 hr [3]: 2690 ng/mL
- concentration at 0.25 hr [4]: 2790 ng/mL
- concentration at 0.5 hr [4]: 7820 ng/mL
- concentration at 1 hr [3]: 8840 ng/mL
- concentration at 1 hr [4]: 7530 ng/mL
- concentration at 2 hr [3]: 18600 ng/mL
- concentration at 2 hr [4]: 15000 ng/mL
- concentration at 4 hr [4]: 8190 ng/mL
- concentration at 8 hr [4]: 633 ng/mL
- concentration at 24 hr (100 mg/kg, PO 100 mg/kg): 60.8 ng/mL
- AUC(0-inf) (IV 5 mg/kg): 5280 ng·h/mL
- AUC(0-t) (IV 5 mg/kg): 5220 ng·h/mL
- C0 (IV 5 mg/kg): 13600 ng/mL
- MRT inf (IV 5 mg/kg): 0.73 h
- MRT last (IV 5 mg/kg): 0.594 h
- half-life (IV 5 mg/kg): 2.28 h
- Vd (IV 5 mg/kg, read-out: Vss): 0.69 L/kg
- AUC(0-inf) (PO 50 mg/kg): 26900 ng·h/mL
- AUC(0-t) (PO 50 mg/kg): 26400 ng·h/mL
- Cmax (PO 50 mg/kg): 7120 ng/mL
- MRT inf (PO 50 mg/kg): 3.79 h
- MRT last (PO 50 mg/kg): 3.31 h
- Tmax (PO 50 mg/kg): 1 h
- half-life (PO 50 mg/kg): 4.05 h
- AUC(0-inf) (PO 100 mg/kg): 63400 ng·h/mL
- AUC(0-t) (PO 100 mg/kg): 63100 ng·h/mL
- Cmax (PO 100 mg/kg): 15000 ng/mL
- MRT inf (PO 100 mg/kg): 3.49 h
- MRT last (PO 100 mg/kg): 3.37 h
- Tmax (PO 100 mg/kg): 2 h
- half-life (PO 100 mg/kg): 3.19 h
